# Reference: patent US8901118B2, “Compounds and methods for kinase modulation, and indications therefor” (Plexxikon Inc., priority 2010, dated 2014)
# pIC50: −log10 of the molar value.
# How the values were obtained:
# CYP2D6 = CYP2D6 (Homo sapiens, UniProt P10635); experiment: CYP2D6 inhibition (fluorescent substrate AMMC); type: in vitro ADME; settings: read-out: Cyp IC50 2D6
# In short: (§1)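 10-pt 1:1 dilution series (from 100 mM DMSO stock) in NADPH regen cofactor mix, 5% MeCN; 10 min preincubation at 37 °C. Enzyme reaction 37 °C: 1A2 15 min, 2C9 45 min, 2C19/2D6 30 min. Fluorescence readout; IC50 fit.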
# BCR-NTRK3 BaF3 cells = target: T1, BCR-NTRK3 BaF3 cells (Homo sapiens, UniProt Q16288); experiment: BaF3 BCR-NTRK3 cell proliferation assay (ATPlite); type: cell-based; settings: read-out: Inhibition of Cell Proliferation IC50, BCR/BaF3 TrkC
# T1 construct: fused on or other part: P11274 (Breakpoint cluster region protein)
# In short: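 Proliferation was run for 3 days at 37 °C against 8-point 1:3 titrations with 10 μM as the top final concentration. Seeding was 10,000 cells/well for BaF3 BCR-fusion lines, grown without IL-3, and 25,000 cells/well for MV-4-11. IC50 was derived from ATPlite luminescence read as cell number.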
# CYP2C9 = CYP2C9 (Homo sapiens, UniProt P11712); experiment: CYP2C9 inhibition (fluorescent substrate MFC); type: in vitro ADME; settings: read-out: Cyp IC50 2C9
# In short: as §1
# CYP3A4(BQ) = CYP3A4(BQ) (Homo sapiens, UniProt P08684); experiment: CYP3A4(BQ) inhibition; type: in vitro ADME; settings: CYP3A4, substrate BQ; read-out: Cyp IC50 3A4(BQ)
# In short: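 After 30 min incubation at 37° C, plates were read on a Tecan Safire 2 at 409 ex/460 em, and IC50 values came from signal plotted against compound concentration. Enzyme and substrate were sourced from BD Biosciences. The cofactor mix held 1.3% NADPH Regeneration system Solution A, 1.04% Solution B, 5% acetonitrile and 0.05% DMSO.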
# T1 sequence (Q16288 whole entry, the tested form may be a part): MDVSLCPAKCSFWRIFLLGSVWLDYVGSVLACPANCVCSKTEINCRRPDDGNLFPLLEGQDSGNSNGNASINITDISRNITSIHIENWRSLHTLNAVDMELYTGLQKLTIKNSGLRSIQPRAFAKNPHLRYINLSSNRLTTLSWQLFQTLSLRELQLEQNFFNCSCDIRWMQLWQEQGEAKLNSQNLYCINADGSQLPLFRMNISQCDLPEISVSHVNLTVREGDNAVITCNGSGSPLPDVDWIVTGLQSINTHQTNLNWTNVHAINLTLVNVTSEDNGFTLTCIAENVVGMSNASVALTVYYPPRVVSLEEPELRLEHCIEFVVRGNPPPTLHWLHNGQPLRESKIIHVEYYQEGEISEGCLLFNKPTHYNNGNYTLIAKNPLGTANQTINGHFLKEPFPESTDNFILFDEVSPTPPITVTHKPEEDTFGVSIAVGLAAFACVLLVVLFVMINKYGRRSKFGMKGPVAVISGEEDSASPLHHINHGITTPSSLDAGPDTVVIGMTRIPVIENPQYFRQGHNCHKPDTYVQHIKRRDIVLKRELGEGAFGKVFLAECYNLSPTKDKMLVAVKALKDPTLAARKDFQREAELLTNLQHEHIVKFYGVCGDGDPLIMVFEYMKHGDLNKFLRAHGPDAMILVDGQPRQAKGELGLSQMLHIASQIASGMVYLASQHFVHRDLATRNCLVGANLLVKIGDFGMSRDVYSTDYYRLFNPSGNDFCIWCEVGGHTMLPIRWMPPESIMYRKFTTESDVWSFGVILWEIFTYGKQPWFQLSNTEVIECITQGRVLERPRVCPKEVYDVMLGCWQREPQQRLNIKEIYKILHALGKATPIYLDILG
# CYP2D6, sequence (P10635 whole entry): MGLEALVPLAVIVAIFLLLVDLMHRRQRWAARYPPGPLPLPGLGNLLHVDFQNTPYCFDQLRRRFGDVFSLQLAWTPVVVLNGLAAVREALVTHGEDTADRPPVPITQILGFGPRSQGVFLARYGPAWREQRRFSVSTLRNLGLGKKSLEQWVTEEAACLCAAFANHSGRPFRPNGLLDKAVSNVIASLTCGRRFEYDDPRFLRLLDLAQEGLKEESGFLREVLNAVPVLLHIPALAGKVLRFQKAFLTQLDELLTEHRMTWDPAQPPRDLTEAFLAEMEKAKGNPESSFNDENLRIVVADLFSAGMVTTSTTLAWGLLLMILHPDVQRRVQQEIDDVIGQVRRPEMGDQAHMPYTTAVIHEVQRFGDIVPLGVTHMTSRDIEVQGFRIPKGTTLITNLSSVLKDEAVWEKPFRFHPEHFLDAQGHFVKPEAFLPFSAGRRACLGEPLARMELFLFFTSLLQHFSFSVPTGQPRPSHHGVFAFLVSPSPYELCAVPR
# CYP3A4(BQ), sequence (P08684 whole entry): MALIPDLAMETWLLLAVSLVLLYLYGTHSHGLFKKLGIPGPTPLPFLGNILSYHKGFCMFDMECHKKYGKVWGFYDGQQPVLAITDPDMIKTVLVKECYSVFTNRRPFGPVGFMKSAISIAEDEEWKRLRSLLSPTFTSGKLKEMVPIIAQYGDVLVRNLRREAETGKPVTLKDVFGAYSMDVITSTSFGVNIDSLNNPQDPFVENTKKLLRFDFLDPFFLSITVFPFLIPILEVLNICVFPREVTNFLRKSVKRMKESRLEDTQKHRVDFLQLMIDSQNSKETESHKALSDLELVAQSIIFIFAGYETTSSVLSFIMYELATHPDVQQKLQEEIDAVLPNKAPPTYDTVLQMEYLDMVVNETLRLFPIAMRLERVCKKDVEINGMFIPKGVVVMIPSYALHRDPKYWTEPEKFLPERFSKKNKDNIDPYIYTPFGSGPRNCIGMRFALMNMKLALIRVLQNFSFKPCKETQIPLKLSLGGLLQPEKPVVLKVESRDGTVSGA
# CYP2C9, sequence (P11712 whole entry): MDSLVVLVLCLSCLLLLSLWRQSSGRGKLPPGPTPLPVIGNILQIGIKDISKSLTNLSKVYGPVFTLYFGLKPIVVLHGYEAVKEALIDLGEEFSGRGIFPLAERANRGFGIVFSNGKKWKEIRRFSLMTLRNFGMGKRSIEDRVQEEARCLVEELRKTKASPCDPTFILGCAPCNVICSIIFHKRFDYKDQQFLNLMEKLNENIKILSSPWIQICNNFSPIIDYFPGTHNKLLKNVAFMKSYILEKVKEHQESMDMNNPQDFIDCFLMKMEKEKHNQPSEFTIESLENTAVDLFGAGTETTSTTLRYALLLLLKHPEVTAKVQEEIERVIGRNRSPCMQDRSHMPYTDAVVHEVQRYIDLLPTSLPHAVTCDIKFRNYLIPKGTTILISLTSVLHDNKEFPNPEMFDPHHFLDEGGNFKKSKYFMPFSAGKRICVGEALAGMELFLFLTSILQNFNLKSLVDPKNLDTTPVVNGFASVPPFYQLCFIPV
SMILES,pIC50 (CYP2D6),pIC50 (BCR-NTRK3 BaF3 cells),pIC50 (CYP2C9),pIC50 (CYP3A4(BQ))
"CNc1ncnc2[nH]cc(C(=O)c3ccc(Nc4ccc(C)nc4)nc3F)c12 [Compound P-4115, [2-fluoro-6-[(6-methyl-3-pyridyl)amino]-3-pyridyl]-[4-(methylamino)-7H-pyrrolo[2,3-d]pyrimidin-5-yl]methanone]",> 5.30,> 8.00,> 5.30,< 5.00
"CCc1ccc(Nc2ccc(C(=O)c3c[nH]c4ncnc(NC5CCOCC5)c34)c(F)n2)cn1 [Compound P-4116, [6-[(6-ethyl-3-pyridyl)amino]-2-fluoro-3-pyridyl]-[4-(tetrahydropyran-4-ylamino)-7H-pyrrolo[2,3-d]pyrimidin-5-yl]methanone]",< 5.00,> 8.00,< 5.00,< 5.00
"CCc1ccc(Nc2ccc(C(=O)c3c[nH]c4ncnc(NC(C)C)c34)c(F)n2)cn1 [Compound P-4117, [6-[(6-ethyl-3-pyridyl)amino]-2-fluoro-3-pyridyl]-[4-(isopropylamino)-7H-pyrrolo[2,3-d]pyrimidin-5-yl]methanone]",< 5.00,> 8.00,5.00 to 5.30,< 5.00
"CCc1ccc(Nc2ccc(C(=O)c3c[nH]c4ncnc(NCC5CC5)c34)c(F)n2)cn1 [Compound P-4118, [4-(cyclopropylmethylamino)-7H-pyrrolo[2,3-d]pyrimidin-5-yl]-[6-[(6-ethyl-3-pyridyl)amino]-2-fluoro-3-pyridyl]methanone]",< 5.00,> 8.00,< 5.00,< 5.00
"CCc1ccc(Nc2ccc(C(=O)c3c[nH]c4ncnc(NCCOC)c34)c(F)n2)cn1 [Compound P-4119, [6-[(6-ethyl-3-pyridyl)amino]-2-fluoro-3-pyridyl]-[4-(2-methoxyethylamino)-7H-pyrrolo[2,3-d]pyrimidin-5-yl]methanone]",< 5.00,> 8.00,< 5.00,< 5.00
"CCc1ccc(Nc2ccc(C(=O)c3c[nH]c4ncnc(NCC(F)(F)F)c34)c(F)n2)cn1 [Compound P-4120, [6-[(6-ethyl-3-pyridyl)amino]-2-fluoro-3-pyridyl]-[4-(2,2,2-trifluoroethylamino)-7H-pyrrolo[2,3-d]pyrimidin-5-yl]methanone]",> 5.30,> 8.00,> 5.30,< 5.00
"CCc1ccc(Nc2ccc(C(=O)c3c[nH]c4ncnc(NCC(C)C)c34)c(F)n2)cn1 [Compound P-4121, [6-[(6-ethyl-3-pyridyl)amino]-2-fluoro-3-pyridyl]-[4-(isobutylamino)-7H-pyrrolo[2,3-d]pyrimidin-5-yl]methanone]",< 5.00,> 8.00,< 5.00,< 5.00
"CCCNc1ncnc2[nH]cc(C(=O)c3ccc(Nc4ccc(CC)nc4)nc3F)c12 [Compound P-4122, [6-[(6-ethyl-3-pyridyl)amino]-2-fluoro-3-pyridyl]-[4-(propylamino)-7H-pyrrolo[2,3-d]pyrimidin-5-yl]methanone]",< 5.00,> 8.00,5.00 to 5.30,< 5.00
"CCNc1ncnc2[nH]cc(C(=O)c3ccc(Nc4ccc(CC)nc4)nc3F)c12 [Compound P-4123, [4-(ethylamino)-7H-pyrrolo[2,3-d]pyrimidin-5-yl]-[6-[(6-ethyl-3-pyridyl)amino]-2-fluoro-3-pyridyl]methanone]",< 5.00,> 8.00,< 5.00,< 5.00
"CCc1ccc(Nc2ccc(C(=O)c3c[nH]c4ncnc(NC)c34)c(F)n2)cn1 [Compound P-4124, [6-[(6-ethyl-3-pyridyl)amino]-2-fluoro-3-pyridyl]-[4-(methylamino)-7H-pyrrolo[2,3-d]pyrimidin-5-yl]methanone]",> 5.30,> 8.00,> 5.30,< 5.00
"CCc1ccc(Nc2ccc(C(=O)c3c[nH]c4ncnc(NC5CC5)c34)c(F)n2)cn1 [Compound P-4125, [4-(cyclopropylamino)-7H-pyrrolo[2,3-d]pyrimidin-5-yl]-[6-[(6-ethyl-3-pyridyl)amino]-2-fluoro-3-pyridyl]methanone]",< 5.30,> 8.00,< 5.00,< 5.00
"COc1ccc(Nc2ccc(C(=O)c3c[nH]c4ncnc(NC5CC5)c34)c(F)n2)cn1 [Compound P-4126, [4-(cyclopropylamino)-7H-pyrrolo[2,3-d]pyrimidin-5-yl]-[2-fluoro-6-[(6-methoxy-3-pyridyl)amino]-3-pyridyl]methanone]",< 5.00,> 8.00,< 5.00,5.00 to 5.30
"Fc1cc(Cc2c[nH]c3ncnc(NC4CC4)c23)cnc1NC1CCC(F)(F)CC1 [Compound P-4127, N-cyclopropyl-5-[[6-[(4,4-difluorocyclohexyl)amino]-5-fluoro-3-pyridyl]methyl]-7H-pyrrolo[2,3-d]pyrimidin-4-amine]",< 5.00,> 7.00,< 5.00,> 5.30
